Experimental data from patent US20260166016A1, “GPR139 RECEPTOR AGONIST, PREPARATION METHOD THEREFOR, AND APPLICATION THEREOF” (NEUBO APPTECH CO., LTD., priority 2022, published 2026).

Tests used:
Assay type in all cases: in vivo
[1] = test system: LPS induced mouse depression model; experiment: LPS induced mouse depression model, body weight; settings: male CD1 (ICR) mice; gavage 2.5 mg/mL at 0.1 mL/10 g twice daily Day 1-4; LPS i.p. Day 4; weighed Day 5; FIG. 4
Excerpt: (§1) Mice: Male Crl: CD1 (ICR) mice; 10-14 weeks old; Weight: 35-40 g; Quantity: 40 pieces
(§2) Group 1, placebo+saline group: 10 mice; divided into 2 cages, 5 mice per cage.
(§3) Group 2, placebo+lipopolysaccharide (LPS) group: 10 mice; divided into 2 cages, 5 mice per cage.
(§4) Group 3, compound NRB181+saline group: 10 mice; divided into 2 cages, 5 mice per cage.
(§5) Group 4, compound NRB181+lipopolysaccharide (LPS) group: 10 mice; divided into 2 cages, 5 mice per cage.
(§6) 21.3.1 Preparation of placebo before experiment: 0.5% CMC sodium+1% Tween80+saline. In a clean bench, 4 tubes of 40 mL placebo were prepared using pyrogen-free centrifuge tubes and ultrapure water, totaling 160 mL, ensuring the absence of endotoxins (LPS). Sterile and endotoxin free centrifuge tubes were used to divide […] of placebo into 4 mL/tube, for a total of 30 tubes, and stored at 4° C. for future use.
(§7) LPS with a purity of >98% was required 3.2 mg of LPS was accurately weighed and dissolved in 40 mL of placebo to prepare a sterile solution of 0.08 mg/mL. […]
21.3.4 On the first day of the experiment at 8:00 am, four groups of mice were randomly divided into groups, and the weight of each mouse was recorded before being placed back in their respective cages. […]
21.3.14 On the Day 5 of the experiment at 9:00 am, each group of mice was weighed and recorded, and then were returned to their home cages.

acutely restrained mice = experiment: Acute restraint mouse stress model, plasma corticosterone (ELISA); settings: male C57BL/6J mice, gavage 1, 5, 25 mg/kg, 30 minutes after administration and 3 hours of acute restraint, dose-dependent, FIG. 1
Method: Mouse: Male C57BL/6J; 8 weeks old; Weight: 20-25 g; Quantity: 40 pieces
Group 1, acute restraint+placebo group, 10 mice; the mice were divided into 2 cages, 5 mice per cage. On the morning of the day of the experiment, the mice in this group were subjected to acute restraint, during which they were fasted and deprived of water.
Group 2, acute restraint+low-dose of compound NRB181 group (1 mg/kg), 10 mice; the mice were divided into 2 cages, 5 mice per cage. On the morning of the day of the experiment, the mice in this group were subjected to acute restraint, during which they were fasted and deprived of water.
Group 3, acute restraint+moderate-dose of compound NRB181 group (5 mg/kg), 10 mice; the mice were divided into 2 cages, 5 mice per cage. On the morning of the day of the experiment, the mice in this group were subjected to acute restraint, during which they were fasted and deprived of water.
Group 4, acute restraint+high-dose of compound NRB181 group (25 mg/kg), 10 mice; the mice were divided into 2 cages, 5 mice per cage. On the morning of the day of the experiment, the mice in this group were subjected to acute restraint, during which they were fasted and deprived of water.
18.3.1 On the day before the experiment, a placebo was prepared: 1 mL of 100% DMSO and 9 mL of formula x solution was added. […]

[2] = test system: LPS induced mouse depression model; experiment: LPS induced mouse depression model, Open Field Test; settings: gavage 2.5 mg/mL at 0.1 mL/10 g twice daily Day 1-4, test 6 hours after injection, FIGS. 6 and 7
Excerpt: as §1, §2, §3, §4, §5, §6, §7
21.3.13 On the afternoon of the Day 4 of the experiment, 6 hours after mice in Group 1 were injected with saline, an Open Field Test was conducted on each group starting from Group 1. Relevant parameters were recorded, and then the mice in each group were returned to their respective home cages.

[3] = test system: LPS induced mouse depression model; experiment: LPS induced mouse depression model, Forced Swim Test; settings: gavage 2.5 mg/mL at 0.1 mL/10 g twice daily Day 1-4, test 24 hours after injection, FIG. 5
Excerpt: as §1, §2, §3, §4, §5, §6
LPS with a purity of >98% was required 3.2 mg of LPS was accurately weighed and dissolved in 40 mL of placebo to prepare a sterile solution of 0.08 mg/mL. After thorough mixing, the solution was divided into sterile and endotoxin-free centrifuge tubes, 4 mL per tube. […]
21.3.15 On the Day 5 of experiment, 24 hours after mice of Group 1 were injected with saline the day before, a Forced Swim Test was conducted on each group of mice starting from Group 1, and the immobility time of each mouse was recorded.

Compound: C[C@H](NC(=O)CNC(=O)c1cc(Cl)ccn1)c1c(F)cccc1F [NRB181]
- weight loss (body weight changes) [1]: significantly alleviate weight loss
- expression level of corticosterone (acutely restrained mice): significantly reduced
- activity of mice in the Open Field Test (number of line crossings, total distance traveled) [2]: significantly increased the activity
- despair time (immobility time) in the Forced Swim Test [3]: significantly reduce the despair time
